Measurements: patent US7351861B2 (priority 2002, dated 2008)
Where two headings read alike, the source gives them in different places.

Key:
Assay type in all cases: cell-based, Yersinia pseudotuberculosis
[1] = tested on: luciferase light signal from pIB102EL (yopE-luxAB, wild-type); assay: microbe, parasite or virus in culture; conditions: for Inhibition (%) of the luciferase light signal: strain pIB102EL, Table 2C; for inhibition at 5 µM / inhibition at 10 µM / inhibition at 20 µM / inhibition at 50 µM / inhibition at 100 µM: Yersinia pseudotuberculosis, read-out: Inhibition (%) of the luciferase light signal
[2] = tested on: reporter gene signal from pIB102FΔhlhL (lcrFΔhlh-luxAB)
[3] = tested on: luciferase light signal from pIB102AL (luxAB downstream of the promoter for YerA)
[4] = tested on: reporter gene signal from pIB102FL (lcrF-luxAB)
[5] = tested on: Yop secretion from the wild-type strain pIB102EL; conditions: for Inhibition of Yop secretion into the surrounding medium (in words): supernatant after 3 h at 37° C., Western analysis
[6] = tested on: luciferase light signal from pIB29EL (yopE-luxAB); assay: microbe, parasite or virus in culture; conditions: for inhibition at 10 µM: read-out: Inhibition (%) of the luciferase light signal, 10 μM; for inhibition at 20 µM: read-out: Inhibition (%) of the luciferase light signal, 20 μM; for IC50: read-out: IC50 (concentration resulting in 50% reduction of luciferase light emission); for Inhibition of light-emission (in words): known antibiotics
[7] = Yersinia pseudotuberculosis, pIB29EL, Table 2B
[8] = 10 μM, strain pIB29EL, Table 2C
[9] = 20 μM, strain pIB29EL, Table 2C
[10] = 50 μM, strain pIB29EL, Table 2C
[11] = 100 μM, strain pIB29EL, Table 2C
[12] = Yersinia pseudotuberculosis, strain pIB29EL, Table 2C

Compound: O=C(N/N=C/c1ccc(O)cc1O)c1ccc([N+](=O)[O-])cc1 [Compound 38]
- Inhibition (%) of the luciferase light signal ([1]; 5 μM): 4%
- Inhibition (%) of the luciferase light signal ([1]; 10 μM): 10%
- Inhibition (%) of the luciferase light signal ([1]; 20 μM): 13%
- Inhibition (%) of the luciferase light signal ([1]; 50 μM): 23%
- Inhibition (%) of the luciferase light signal ([1]; 100 μM): 36%

Compound: O=C(N/N=C/c1cc(I)cc(I)c1O)c1ccc([N+](=O)[O-])cc1 [Compound 41]
- Inhibition (%) of the luciferase light signal ([1]; 5 μM): 3%
- Inhibition (%) of the luciferase light signal ([1]; 10 μM): 13%
- Inhibition (%) of the luciferase light signal ([1]; 20 μM): 33%
- Inhibition (%) of the luciferase light signal ([1]; 50 μM): 48%
- Inhibition (%) of the luciferase light signal ([1]; 100 μM): 44%

Compound: O=C(N/N=C/c1cc(Br)cc(Br)c1O)c1ccc([N+](=O)[O-])cc1 [Compound 3]
- Effect on reporter gene signal (in words) [2]: more than doubled
- Selectivity between pIB102EL (YopE promoter) and control strain pIB102AL (in words) [3]: stronger inhibitory effect on the wild-type strain pIB102EL
- Effect on reporter gene signal (in words) [4]: enhance the reporter gene signal
- Inhibition of Yop secretion into the surrounding medium (in words) [5]: efficiently inhibits Yop secretion in a dose dependent manner
- Total Yop content, bacteria and surrounding media (in words) ([5]; various concentrations incl. 50 and 100 μM lanes, FIG. 6B): Yops can be observed at concentrations that completely inhibit secretion
- Inhibition (%) of the luciferase light signal ([6]; 10 μM, pIB29EL, Table 2A): 12%
- Inhibition (%) of the luciferase light signal ([6]; 20 μM, pIB29EL, Table 2A): 48%
- Inhibition (%) of the luciferase light signal ([6]; 50 μM, pIB29EL, Table 2A): 85%
- Inhibition (%) of the luciferase light signal ([6]; 100 μM, pIB29EL, Table 2A): 86%
- Potency within the class of acylated hydrazones of salicylic aldehydes from primary screening (in words) ([6]; pIB29EL): most potent

Compound: Nc1ccc(C(=O)N/N=C/c2c(O)ccc3ccccc23)cc1 [Compound 44]
- Inhibition (%) of the luciferase light signal ([1]; 5 μM): 3%
- Inhibition (%) of the luciferase light signal ([1]; 10 μM): 10%
- Inhibition (%) of the luciferase light signal ([1]; 20 μM): 15%
- Inhibition (%) of the luciferase light signal ([1]; 50 μM): 23%
- Inhibition (%) of the luciferase light signal ([1]; 100 μM): 30%

Compound: O=C(N/N=C/c1cc(Br)ccc1O)c1cccnc1 [Compound 42]
- Inhibition (%) of the luciferase light signal ([1]; 5 μM): 0%
- Inhibition (%) of the luciferase light signal ([1]; 10 μM): 9%
- Inhibition (%) of the luciferase light signal ([1]; 20 μM): 16%
- Inhibition (%) of the luciferase light signal ([1]; 50 μM): 49%
- Inhibition (%) of the luciferase light signal ([1]; 100 μM): 59%

Compound: CCN(CC)c1ccc(/C=N/NC(=O)c2cccnc2)c(O)c1 [Compound 37]
- inhibition at 5 µM [1]: 5%
- inhibition at 10 µM [1]: 8%
- inhibition at 20 µM [1]: 21%
- inhibition at 50 µM [1]: 30%
- inhibition at 100 µM [1]: 32%

Compound: O=C(N/N=C/c1ccc(O)c(O)c1O)c1ccco1 [Compound 34]
- inhibition at 5 µM [1]: 1%
- inhibition at 10 µM [1]: 5%
- inhibition at 20 µM [1]: 10%
- inhibition at 50 µM [1]: 26%
- inhibition at 100 µM [1]: 56%

Compound: O=C(N/N=C/c1cc(Cl)cc(Cl)c1O)c1ccccc1 [Compound 35]
- Inhibition (%) of the luciferase light signal ([1]; 5 μM): 0%
- Inhibition (%) of the luciferase light signal ([1]; 10 μM): 0%
- Inhibition (%) of the luciferase light signal ([1]; 20 μM): 5%
- Inhibition (%) of the luciferase light signal ([1]; 50 μM): 21%
- Inhibition (%) of the luciferase light signal ([1]; 100 μM): 43%

Compound: Nc1ccc(C(=O)N/N=C/c2cc(I)cc(I)c2O)cc1 [Compound 40]
- Inhibition (%) of the luciferase light signal ([1]; 5 μM): 3%
- Inhibition (%) of the luciferase light signal ([1]; 10 μM): 11%
- Inhibition (%) of the luciferase light signal ([1]; 20 μM): 18%
- Inhibition (%) of the luciferase light signal ([1]; 50 μM): 41%
- Inhibition (%) of the luciferase light signal ([1]; 100 μM): 50%

Compound: O=C(Nc1ccc(Cl)c(Cl)c1)c1cc(Cl)ccc1NS(=O)(=O)c1cccc2nsnc12 [Compound 5]
- Effect on reporter gene signal (in words) [2]: modest enhancement
- Selectivity between pIB102EL (YopE promoter) and control strain pIB102AL (in words) [3]: stronger inhibitory effect on the wild-type strain pIB102EL
- Effect on reporter gene signal (in words) [4]: minor inhibition
- Inhibition of Yop secretion into the surrounding medium (in words) [5]: dose dependent inhibition of secretion
- Inhibition (%) of the luciferase light signal ([6]; 10 μM, pIB29EL, Table 2A): 35%
- Inhibition (%) of the luciferase light signal ([6]; 20 μM, pIB29EL, Table 2A): 60%
- Inhibition (%) of the luciferase light signal ([6]; 50 μM, pIB29EL, Table 2A): 69%
- Inhibition (%) of the luciferase light signal ([6]; 100 μM, pIB29EL, Table 2A): 66%

Compound: CCOc1cccc(/C=N/NC(=O)c2ccc(Cl)cc2)c1O [Compound 43]
- Inhibition (%) of the luciferase light signal ([1]; 5 μM): 0%
- Inhibition (%) of the luciferase light signal ([1]; 10 μM): 6%
- Inhibition (%) of the luciferase light signal ([1]; 20 μM): 12%
- Inhibition (%) of the luciferase light signal ([1]; 50 μM): 22%
- Inhibition (%) of the luciferase light signal ([1]; 100 μM): 34%

Compound: CC(=O)Oc1c(I)cc(I)cc1C(=O)Nc1ccc(Cl)cc1 [Compound 4, 2-acetoxy-4′-chloro-3,5-diiodobenzanilide]
- Effect on reporter gene signal (in words) ([1]; pIB102EL, FIG. 5C): inhibits the reporter gene signal
- Effect on reporter gene signal (in words) [2]: inhibits the reporter gene signal
- Effect on reporter gene signal (in words) [3]: inhibits the reporter gene signal
- Selectivity between pIB102EL (YopE promoter) and control strain pIB102AL (in words) [3]: no selectivity
- Effect on reporter gene signal (in words) [4]: inhibits the reporter gene signal
- Inhibition of Yop secretion into the surrounding medium (in words) [5]: dose dependent inhibition of secretion
- inhibition at 5 µM ([6]; Yersinia pseudotuberculosis, read-out: Inhibition (%) of the luciferase light signal, 5 μM (first of two columns headed 5), pIB29EL, Table 2B): 15%
- inhibition at 5 µM ([6]; Yersinia pseudotuberculosis, read-out: Inhibition (%) of the luciferase light signal, 5 μM (second of two columns headed 5), pIB29EL, Table 2B): 45%
- inhibition at 10 µM [6, 7]: 81%
- inhibition at 20 µM [6, 7]: 96%

Compound: CCn1cc(C(=O)O)c(=O)c2ccc(C)nc21 [Nalidixic acid, reference compound]
- IC50 ([6]; Yersinia pseudotuberculosis): 15 µM
- Inhibition of light-emission (in words) ([6]; pIB29EL): dose-dependent inhibition of light-emission

Compound: CC(=NNC(=O)c1cccnc1)c1cc(Br)cc(Br)c1O [Compound 39]
- Inhibition (%) of the luciferase light signal ([1]; 5 μM): 0%
- Inhibition (%) of the luciferase light signal ([1]; 10 μM): 3%
- Inhibition (%) of the luciferase light signal ([1]; 20 μM): 4%
- Inhibition (%) of the luciferase light signal ([1]; 50 μM): 13%
- Inhibition (%) of the luciferase light signal ([1]; 100 μM): 24%

Compound: CC1(C)S[C@@H]2[C@H](NC(=O)C(C(=O)O)c3ccccc3)C(=O)N2[C@H]1C(=O)O (some centres unmarked) [Carbenicillin, reference compound]
- IC50 ([6]; Yersinia pseudotuberculosis): 15 µM
- Inhibition of light-emission (in words) ([6]; pIB29EL): dose-dependent inhibition of light-emission

Compound: CC(=O)Oc1c(I)cc(I)cc1C(=O)Nc1cc(Cl)ccc1F [Compound 49]
- Inhibition (%) of the luciferase light signal ([6]; 5 μM, strain pIB29EL, Table 2C): 24%
- Inhibition (%) of the luciferase light signal [6, 8]: 34%
- Inhibition (%) of the luciferase light signal [6, 9]: 63%
- Inhibition (%) of the luciferase light signal [6, 10]: 89%
- Inhibition (%) of the luciferase light signal [6, 11]: 88%

Compound: CC(=O)Oc1ccccc1C(=O)Nc1ccc(Cl)cc1 [Compound 60]
- Inhibition (%) of the luciferase light signal ([6]; 5 μM, strain pIB29EL, Table 2C): 0%
- Inhibition (%) of the luciferase light signal [6, 8]: 21%
- Inhibition (%) of the luciferase light signal [6, 9]: 65%
- Inhibition (%) of the luciferase light signal [6, 10]: 89%
- Inhibition (%) of the luciferase light signal [6, 11]: 89%

Compound: NC(=O)C(=O)N/N=C/c1cc(Br)ccc1O [Compound 22]
- inhibition at 5 µM [1]: 0%
- inhibition at 10 µM [1]: 4%
- inhibition at 20 µM [1]: 24%
- inhibition at 50 µM [1]: 66%
- inhibition at 100 µM [1]: 82%

Compound: O=C(N/N=C/c1ccc(O)c(O)c1O)c1ccccc1 [Compound 36]
- Inhibition (%) of the luciferase light signal ([1]; 5 μM): 5%
- Inhibition (%) of the luciferase light signal ([1]; 10 μM): 10%
- Inhibition (%) of the luciferase light signal ([1]; 20 μM): 15%
- Inhibition (%) of the luciferase light signal ([1]; 50 μM): 24%
- Inhibition (%) of the luciferase light signal ([1]; 100 μM): 54%

Compound: O=C(Nc1ccc([N+](=O)[O-])cc1Cl)c1cc(Cl)ccc1O [Compound 55]
- Inhibition (%) of the luciferase light signal ([6]; 5 μM, strain pIB29EL, Table 2C): 85%
- Inhibition (%) of the luciferase light signal [6, 8]: 96%
- Inhibition (%) of the luciferase light signal [6, 9]: 96%
- Inhibition (%) of the luciferase light signal [6, 10]: 94%
- Inhibition (%) of the luciferase light signal [6, 11]: 94%

Compound: CC(=O)Oc1ccc(Cl)cc1C(=O)Nc1ccc([N+](=O)[O-])cc1Cl [Compound 56]
- Inhibition (%) of the luciferase light signal ([6]; 5 μM, strain pIB29EL, Table 2C): 77%
- Inhibition (%) of the luciferase light signal [6, 8]: 90%
- Inhibition (%) of the luciferase light signal [6, 9]: 91%
- Inhibition (%) of the luciferase light signal [6, 10]: 91%
- Inhibition (%) of the luciferase light signal [6, 11]: 90%

Compound: O=C(COc1ccccc1)N/N=C/c1c(O)ccc2ccccc12 [Compound 20]
- inhibition at 10 µM [6, 12]: 2%
- inhibition at 20 µM [6, 12]: 5%
- inhibition at 50 µM ([6]; Yersinia pseudotuberculosis, read-out: Inhibition (%) of the luciferase light signal, 50 μM, strain pIB29EL, Table 2C): 19%
- inhibition at 100 µM ([6]; Yersinia pseudotuberculosis, read-out: Inhibition (%) of the luciferase light signal, 100 μM, strain pIB29EL, Table 2C): 48%
